Test systems include A549; CCRF-CEM; COLO 205; HCT-15; HOP-92; K562; KM12; M14; NCI-H522; RXF 393; SF-268; SF-295; SN12C; SW-620; U-251; HOP-62; OVCAR-5; RPMI-8226; SF-539; HL-60.
Experiment in all cases: DTP human tumour cell line panel, 48 h

Experimental findings from ChEMBL document CHEMBL1201862, “PubChem BioAssay data set” (2004) are described below.

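A five-concentration, 48-hour dose response in 96-well plates underlies each endpoint, interpolated linearly between surrounding concentrations. GI50 = concentration required for 50% inhibition of growth.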 Calls of active or inactive are those of the source. Cut-off read from the data, not from the text of the source: active = GI50 up to about 1.1 µM and inactive = higher.

In the case of `Cc1ccc(S(=O)(=O)N2CCCN(S(=O)(=O)c3ccc(C)cc3)CC2)cc1`, the GI50 was > 10 µM (inactive) in the test with A549; > 100 µM (inactive) in the test with CCRF-CEM; > 100 µM (inactive) in the test with COLO 205; above 100 µM with HCT-15; > 100 µM (inactive) in the test with HOP-92; > 100 µM (inactive) in the test with K562. Also, the GI50 with KM12, in the test with M14, in the test with NCI-H522, in the test on RXF 393, with SF-268 and in the test with SF-295 was > 100 µM (inactive) in each case. For the same molecule, the GI50 in the test on SN12C, in the test with SW-620 and with U-251 was > 100 µM (inactive) in each case.
Consider `O=C1CCC(NC(=O)c2ccccc2)C(=O)N1` (stereo not drawn), for which the GI50 in the test with A549 was > 100 µM (inactive); in the test with COLO 205, > 100 µM (inactive); in the test with HCT-15, above 100 µM; with HOP-62, > 100 µM (inactive); in the test on HOP-92, > 100 µM (inactive); in the test with KM12, > 100 µM (inactive). Moreover, the GI50 with M14, with NCI-H522, in the test on OVCAR-5, with RPMI-8226, in the test on RXF 393 and in the test on SF-268 was > 100 µM (inactive) throughout. Also, the GI50 in the test with SF-295, in the test on SF-539, in the test with SN12C, in the test on SW-620 and in the test with U-251 was > 100 µM (inactive) in each case.
As to `O=C(O)COc1ccc(C(=O)/C(SS/C(C(=O)c2ccc(OCC(=O)O)c(Cl)c2Cl)=C2\C=C(c3ccccc3Cl)SS2)=C2/C=C(c3ccccc3Cl)SS2)c(Cl)c1Cl`, the GI50 in the test on A549 was 46.8 µM (inactive); in the test on CCRF-CEM, 13 µM (inactive); in the test with COLO 205, 17.6 µM (inactive); in the test on HCT-15, 21.7 µM; in the test on HL-60, 2.59 µM (inactive); in the test on HOP-62 it was 72.1 µM (inactive). Besides, the GI50 with HOP-92 was 7.89 µM (inactive); in the test with K562, 8.91 µM (inactive); in the test with KM12 it was 31.2 µM (inactive); in the test with M14 it was 28.2 µM (inactive); with NCI-H522, 3.27 µM (inactive); with OVCAR-5, > 70.3 µM (inactive). Further, the GI50 with RPMI-8226 is 18.3 µM (inactive); in the test on SF-268 it was 22 µM (inactive); in the test with SF-295 it was 37.5 µM (inactive); with SF-539, 11.8 µM (inactive); with SN12C it was 30.6 µM (inactive); with SW-620 it was 25.5 µM (inactive). In the test with U-251, the GI50 was 6.61 µM (inactive).
Regarding `COC(=O)CCC(NC(=S)N/N=C(\C)c1cccs1)C(=O)OC` (stereo not drawn), the GI50 in the test with A549 is > 100 µM (inactive); in the test with COLO 205, > 100 µM (inactive); with HCT-15 it was above 100 µM; with HOP-62, > 100 µM (inactive); in the test with HOP-92, > 100 µM (inactive); in the test on K562, > 100 µM (inactive). In addition, the GI50 in the test with KM12, in the test on M14, with NCI-H522, in the test on OVCAR-5, in the test on RXF 393 and in the test with SF-268 was > 100 µM (inactive) throughout. Besides, the GI50 with SF-295, in the test on SF-539, with SN12C, with SW-620 and in the test on U-251 was > 100 µM (inactive) each time.
Take `COc1ccc2nc3c([N+](=O)[O-])ccc4c3c(c2c1)N=CN4CCCN(C)C`: the GI50 was 0.716 µM (active) in the test on A549; 0.807 µM (active) in the test with CCRF-CEM; 0.855 µM (active) with COLO 205; 0.53 µM in the test on HCT-15; 2.77 µM (inactive) with HL-60; 1.2 µM (inactive) with HOP-62. Moreover, the GI50 is 1.99 µM (inactive) in the test with HOP-92; 0.488 µM (active) in the test with K562; 1.24 µM (inactive) in the test with KM12; 4.73 µM (inactive) in the test with M14; 1.34 µM (inactive) in the test with NCI-H522; 10.2 µM (inactive) in the test with OVCAR-5. The concentration for 50% growth inhibition (GI50) is 0.318 µM (active) in the test on RPMI-8226; 2.77 µM (inactive) with SF-268; 2.55 µM (inactive) in the test on SF-295; 0.944 µM (active) with SF-539; 1.97 µM (inactive) in the test on SN12C; 0.44 µM (active) in the test with SW-620. Also, in the test with U-251, the GI50 is 1.65 µM (inactive).
On to `CCOC(=O)/C=C/c1nc(C#N)c(N)o1`, for which the GI50 in the test with A549 was > 100 µM (inactive); in the test on CCRF-CEM, > 100 µM (inactive); in the test with HCT-15 it was above 100 µM; in the test on HL-60 it was > 100 µM (inactive); with HOP-62 it was > 100 µM (inactive); with HOP-92 it was > 100 µM (inactive). Besides, the GI50 was > 100 µM (inactive) with K562; > 100 µM (inactive) with KM12; > 100 µM (inactive) in the test with M14; > 100 µM (inactive) in the test with OVCAR-5; > 100 µM (inactive) in the test on RPMI-8226; 1.46 µM (inactive) in the test on RXF 393. Besides, the GI50 with SF-268, in the test on SN12C, in the test on SW-620 and in the test with U-251 was > 100 µM (inactive) throughout.
Turning to `Cc1cc(C)n(C(=O)C(C)Sc2nnc(SC(C)C(=O)n3nc(C)cc3C)s2)n1` (stereo not drawn), the GI50 is > 100 µM (inactive) in the test with A549; > 100 µM (inactive) with CCRF-CEM; > 100 µM (inactive) in the test with COLO 205; above 100 µM in the test with HCT-15; > 100 µM (inactive) with HL-60; > 100 µM (inactive) in the test on HOP-62. The GI50 in the test with HOP-92, in the test with K562, with KM12, in the test with M14, in the test with OVCAR-5 and in the test with RPMI-8226 was > 100 µM (inactive) each time. Further, the GI50 in the test on RXF 393, with SF-268, with SF-295, with SW-620 and in the test with U-251 was > 100 µM (inactive) in each case.
`C=C1CC(C)(COc2ccc3ccc(=O)oc3c2)OC1=O` (stereo not drawn): the GI50 was 13.5 µM (inactive) in the test with A549; 0.402 µM (active) in the test with CCRF-CEM; 0.982 µM (active) with COLO 205; 2.61 µM in the test with HCT-15; 0.256 µM (active) in the test with HL-60; 16 µM (inactive) with HOP-62. In addition, the GI50 was 1.12 µM (inactive) with HOP-92; 0.581 µM (active) in the test with K562; 4.07 µM (inactive) in the test with KM12; 1.14 µM (inactive) in the test on M14; 0.733 µM (active) with NCI-H522; 6.73 µM (inactive) in the test with OVCAR-5. Besides, the GI50 was 0.757 µM (active) in the test on RPMI-8226; 10.9 µM (inactive) in the test with SF-268; 5.68 µM (inactive) in the test with SF-295; 2.65 µM (inactive) in the test with SF-539; 8.22 µM (inactive) in the test with SN12C; 0.822 µM (active) in the test with SW-620. Also, the GI50 in the test on U-251 is 13 µM (inactive).
Turning to `CC(=O)OC(C)(C)CCC(=O)[C@](C)(O)[C@H]1[C@H](O)C[C@@]2(C)[C@@H]3CC=C4C(C)=C(OC5OC(CO)C(O)C(O)C5O)C(=O)C[C@@H]4[C@]3(C)C(=O)C[C@]12C` (stereo partly drawn), the GI50 with A549 is > 100 µM (inactive); in the test on CCRF-CEM it was > 100 µM (inactive); in the test on COLO 205, > 100 µM (inactive); with HCT-15 it was above 100 µM; in the test with HOP-62 it was > 100 µM (inactive); with HOP-92, > 100 µM (inactive). Also, the GI50 with K562, in the test with KM12, with M14, in the test on NCI-H522, in the test on OVCAR-5 and with RXF 393 was > 100 µM (inactive) each time. Also, the GI50 in the test on SF-268, with SF-295, with SF-539, in the test with SN12C, with SW-620 and with U-251 was > 100 µM (inactive) throughout.
For `C=C1C(=O)O[C@H]2C1C[C@H](O)[C@@]1(C)OC1CC[C@@]1(C)O[C@H]21` (stereo partly drawn), the GI50 in the test on A549 is > 100 µM (inactive); in the test on CCRF-CEM, 2.61 µM (inactive); in the test with COLO 205, 4.88 µM (inactive); in the test on HCT-15, 18.7 µM; in the test with HOP-62, 27.6 µM (inactive); in the test on HOP-92 it was 20.6 µM (inactive). The GI50 was 4.28 µM (inactive) in the test on K562; 25.1 µM (inactive) in the test on KM12; 15.5 µM (inactive) in the test on M14; 2.79 µM (inactive) in the test on NCI-H522; 16.9 µM (inactive) in the test on OVCAR-5; 6.65 µM (inactive) with RPMI-8226. The GI50 with RXF 393 is 22.5 µM (inactive); in the test on SF-268, 43.2 µM (inactive); in the test with SF-295 it was > 100 µM (inactive); in the test on SN12C it was 17.4 µM (inactive); in the test with SW-620 it was 13.6 µM (inactive); with U-251 it was > 100 µM (inactive).
Turning to `OC1CCC[C@@H]1Sc1ccccc1` (stereo partly drawn), the GI50 in the test with A549 was > 100 µM (inactive); in the test with CCRF-CEM, > 100 µM (inactive); with COLO 205, > 100 µM (inactive); with HCT-15 it was above 100 µM; in the test on HL-60, > 100 µM (inactive); with HOP-62 it was > 100 µM (inactive). Besides, the GI50 in the test with HOP-92, with K562, with KM12, with M14, in the test with RPMI-8226 and with RXF 393 was > 100 µM (inactive) throughout. For the same molecule, the GI50 in the test with SF-268, in the test with SF-295, in the test with SF-539, with SN12C, in the test on SW-620 and in the test with U-251 was > 100 µM (inactive) throughout.

Broadly, the GI50 is the concentration at which growth is held to half of that of the control.
